{"source": "patent US11834401B2", "about": "“Treating and preventing diseases by modulating cell mechanics” (THE JOHNS HOPKINS UNIVERSITY, priority 2013, dated 2023)", "key": {"myosin II [1]": {"tested_on": "myosin II", "test": "Myosin II cortical localization by SIM, TIRF and confocal imaging", "assay_type": "cell-based, Dictyostelium discoideum", "conditions": "myoII null cells", "protocol": "(§1) Micropipette aspiration was used for cortical tension and creep response measurements. Confocal imaging was performed on a Zeiss 510 Meta with a 63× (numerical aperture [NA] 1.4) objective (Carl Zeiss, Jena, Germany). Epifluorescence and TIRF imaging was performed in a 22° C. temperature controlled room with an Olympus IX81 microscope using a 40× (NA 1.3) or 60× (NA 1.49) objective and a 1.4× optovar (Olympus, Center Valley, Pa.), as previously described. Image analysis was performed with ImageJ (rsb.info.nih.gov/ij).\n(§2) Imaging conditions during primary screen are described above. All other image analysis was performed as previously described (Kee Y S, et al., 2012). Cells were transferred from Petri dishes (with 0.1% DMSO incubation in growth media of 4 hrs) to imaging chambers and allowed to adhere for 20 min in growth media with 0.1% DMSO. After the cells adhered, the growth media was replaced with 2-(N-morpholino)ethanesulfonic acid (MES) starvation buffer (50 mM MES, pH 6.8, 2 mM MgCl2, 0.2 mM CaCl2) with 0.1% DMS. Confocal imaging was performed on aZeiss 510 Meta with a 63× (numerical aperture [NA] 1.4) objective (Carl Zeiss, Jena, Germany). Epifluorescence and TIR imaging was performed in a 22° C. temperature controlled room with an Olympus IX81 microscope using a 40× (NA 1.3) or 60× (NA […]) objective and a 1.4× optovar (Olympus, Center Valley, Pa.), as previously described. Image analysis was performed with ImageJ (rsb.info.nih.gov/ij). Many data sets were independently analyzed by multiple investigators."}, "myosin II [2]": {"biological_target": "T1, myosin II (Dictyostelium discoideum, UniProt P08799, T1823D/T1833D/T2029D)", "T1 construct": "expressed in transfected cells; host or cells: Dictyostelium discoideum myoII null cells rescued with GFP-myosin II", "test": "Myosin II cortical localization by SIM, TIRF and confocal imaging", "assay_type": "cell-based", "conditions": "myoII null cells, 500 nM, 10 minutes post-treatment", "protocol": "as §1, §2"}, "myosin II [3]": {"biological_target": "T2, myosin II (Dictyostelium discoideum, UniProt P08799, T1823A/T1833A/T2029A)", "T2 construct": "expressed in transfected cells; host or cells: Dictyostelium discoideum myoII null cells rescued with GFP-myosin II", "test": "Myosin II cortical localization by SIM, TIRF and confocal imaging", "assay_type": "cell-based", "conditions": "myoII null cells, 500 nM, 10 minutes post-treatment", "protocol": "as §1, §2"}, "myosin II [4]": {"biological_target": "T3, myosin II (Dictyostelium discoideum, UniProt P08799, S456L)", "T3 construct": "expressed in transfected cells; host or cells: Dictyostelium discoideum myoII null cells rescued with GFP-myosin II", "test": "Myosin II cortical localization by SIM, TIRF and confocal imaging", "assay_type": "cell-based", "conditions": "myoII null cells, time course beyond one hour", "protocol": "as §1, §2"}, "ASPC-1 cells [5]": {"tested_on": "ASPC-1 cells", "test": "Matrigel invasion assay", "assay_type": "cell-based, human", "conditions": "transwells with 2 mg/ml Matrigel", "protocol": "Cells were treated as in migration assay, but plated in transwells containing 2 mg/ml Matrigel (BD Biosciences)."}, "ASPC-1 cells [6]": {"tested_on": "ASPC-1 cells", "test": "Retrograde actin flow (SiR-actin, lattice light-sheet)", "assay_type": "cell-based, human", "conditions": "500 nM", "protocol": "AsPC-1 cells were grown on collagen I-coated (50 μg/ml) 5-mm coverslips for 16 hrs and then treated with 100-nM SiR-Actin (Cytoskeleton, Inc) and […] Verapamil for 4 hrs in Leibovitz L-15 without phenol red media, with or without 4-HAP (500 nM). Coverslips were transferred to the imaging chamber of the Lattice Light-Sheet Microscope (LLSM) (Intelligent Imaging Innovations) containing fresh Leibovitz L-15 media without SiR-Actin and verapamil plus the corresponding 4-HAP concentration. Cells were imaged for 3-5 min at 2-3-sec intervals, 50-150 planes per 3D stack, with a Nikon CFI75 Apochromat 25×/1.1 water-dipping objective. Retrograde actin flow was measured using ImageJ (rsb.info.nih.gov/ij). Datasets were independently analyzed by multiple investigators."}, "[7]": {"tested_on": "AsPC-1 shCTRL and shIIA cells", "test": "Transwell migration of knockdown lines", "assay_type": "cell-based, human", "protocol": "AsPC-1 cells were plated in 6.5-mm PET membrane transwell inserts with 8-μm pores (Costar #3464) in a 24-well plate at a concentration of 5,000 cells per well. Cells were allowed to adhere overnight in AsPC-1 media. Cell media was then changed to serum-free RPMI 1640 to starve cells for 18 hrs. Following starvation, cells were stimulated by changing media in the top chamber to fresh serum-free RPMI 1640±500 nM 4-HAP and complete AsPC-1 media ±500 nM 4HAP. Cells were then incubated for 24 hrs at 37 degrees C./5% CO2 and then fixed in 4% paraformaldehyde, permeabilized in 0.1% Triton X-100 and stained with 1 μg/ml DAPI. […] A total of five random fields per transwell insert were imaged using a 10× objective (NA) and nuclei were averaged."}, "ASPC-1 cells [8]": {"tested_on": "ASPC-1 cells", "test": "Viability assay", "assay_type": "cell-based, human", "conditions": "50 nM, 500 nM"}, "myosin IIC": {"biological_target": "T4, myosin IIC (Homo sapiens, UniProt Q7Z406)", "T4 construct": "endogenous in cells; host or cells: HEK293, ASPC-1, HPDE", "T4 sequence (Q7Z406 whole entry)": "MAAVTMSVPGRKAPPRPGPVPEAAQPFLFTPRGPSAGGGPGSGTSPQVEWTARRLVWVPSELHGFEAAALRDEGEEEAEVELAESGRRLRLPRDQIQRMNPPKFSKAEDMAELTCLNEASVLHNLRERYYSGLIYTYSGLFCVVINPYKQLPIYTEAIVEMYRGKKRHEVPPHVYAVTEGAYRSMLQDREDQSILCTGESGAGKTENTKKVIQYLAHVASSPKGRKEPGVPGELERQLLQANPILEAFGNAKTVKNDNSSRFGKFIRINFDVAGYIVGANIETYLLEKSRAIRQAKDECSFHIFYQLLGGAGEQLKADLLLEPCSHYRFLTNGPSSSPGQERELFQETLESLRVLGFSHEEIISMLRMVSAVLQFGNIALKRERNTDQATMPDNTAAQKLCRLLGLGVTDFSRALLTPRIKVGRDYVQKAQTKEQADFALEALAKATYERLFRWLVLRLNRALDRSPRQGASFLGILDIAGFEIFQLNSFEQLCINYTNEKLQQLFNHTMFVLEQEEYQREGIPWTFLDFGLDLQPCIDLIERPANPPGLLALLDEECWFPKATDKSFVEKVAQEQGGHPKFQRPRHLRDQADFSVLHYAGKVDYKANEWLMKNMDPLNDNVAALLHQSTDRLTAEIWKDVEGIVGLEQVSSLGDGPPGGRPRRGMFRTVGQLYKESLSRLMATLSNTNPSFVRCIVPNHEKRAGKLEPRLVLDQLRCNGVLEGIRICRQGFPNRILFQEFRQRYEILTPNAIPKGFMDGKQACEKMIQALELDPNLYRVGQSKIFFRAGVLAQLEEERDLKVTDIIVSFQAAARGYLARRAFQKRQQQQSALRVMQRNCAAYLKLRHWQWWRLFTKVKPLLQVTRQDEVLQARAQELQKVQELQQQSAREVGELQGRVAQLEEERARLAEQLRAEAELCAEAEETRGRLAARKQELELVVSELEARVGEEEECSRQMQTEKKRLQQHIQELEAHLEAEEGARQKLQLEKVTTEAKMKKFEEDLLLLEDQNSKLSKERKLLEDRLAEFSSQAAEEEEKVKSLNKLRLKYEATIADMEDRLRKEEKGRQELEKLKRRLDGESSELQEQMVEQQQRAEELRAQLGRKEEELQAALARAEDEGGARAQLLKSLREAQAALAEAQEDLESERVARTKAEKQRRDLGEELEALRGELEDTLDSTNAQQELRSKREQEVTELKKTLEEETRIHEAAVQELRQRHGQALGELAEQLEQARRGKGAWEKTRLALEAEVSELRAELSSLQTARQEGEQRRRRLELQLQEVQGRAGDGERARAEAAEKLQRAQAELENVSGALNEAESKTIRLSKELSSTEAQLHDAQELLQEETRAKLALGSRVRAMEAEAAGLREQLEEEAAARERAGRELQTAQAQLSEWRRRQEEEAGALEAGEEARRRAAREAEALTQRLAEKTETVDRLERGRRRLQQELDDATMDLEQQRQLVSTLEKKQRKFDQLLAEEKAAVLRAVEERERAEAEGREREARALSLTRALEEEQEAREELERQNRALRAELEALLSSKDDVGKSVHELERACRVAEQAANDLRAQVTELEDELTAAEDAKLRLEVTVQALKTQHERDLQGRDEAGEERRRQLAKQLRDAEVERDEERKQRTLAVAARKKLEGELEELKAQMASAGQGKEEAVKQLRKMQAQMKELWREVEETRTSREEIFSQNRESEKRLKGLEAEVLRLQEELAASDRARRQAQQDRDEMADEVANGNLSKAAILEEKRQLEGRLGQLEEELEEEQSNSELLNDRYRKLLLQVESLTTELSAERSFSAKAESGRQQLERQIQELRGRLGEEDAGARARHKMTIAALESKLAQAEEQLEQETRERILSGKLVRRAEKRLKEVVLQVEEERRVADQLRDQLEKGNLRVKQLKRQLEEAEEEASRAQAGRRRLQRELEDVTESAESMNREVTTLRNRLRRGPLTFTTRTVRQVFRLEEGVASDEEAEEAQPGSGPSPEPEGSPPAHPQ", "test": "Mammalian cell sedimentation assay", "assay_type": "cell-based", "protocol": "(§3) Sedimentation protocol was adapted from the protocol above. 3×10^6 cells were pelleted for 5 min at 2000 rpm and washed in 1 ml PBS. The pellet was resuspended in 100 μl lysis buffer (50 mM PIPES, pH 6.8, 46 mM NaCl, 2.5 mM EGTA, 1 mM MgCl2, 1 mM ATP, 0.5% Triton X-100, and protease inhibitors—PI cocktail, PMSF, TLCK, Aprotinin). Samples were vortexed briefly and incubated on ice for 20 min, followed by centrifugation at 15,000 g for 5 min at 4° C.\n(§4) Pellet was resuspended in 100 μl lysis buffer minus Triton X-100, and both pellet and supernatant fractions were heated to 100° C. for 3 min with RNaseA. Samples were incubated at 37° C. for 30 min and then heated to 100° C. in sample buffer for 5 min. Samples were loaded on a 15% SDS-polyacrylamide gel. Western blot analyses of phospho-myosin IIA was performed on whole cell lysates of cells treated as above in lysate buffer with 10 mM NaF."}, "myosin IIB": {"biological_target": "T5, myosin IIB (Homo sapiens, UniProt P35580)", "T5 construct": "endogenous in cells; host or cells: HEK293, HPDE", "T5 sequence (P35580 whole entry)": "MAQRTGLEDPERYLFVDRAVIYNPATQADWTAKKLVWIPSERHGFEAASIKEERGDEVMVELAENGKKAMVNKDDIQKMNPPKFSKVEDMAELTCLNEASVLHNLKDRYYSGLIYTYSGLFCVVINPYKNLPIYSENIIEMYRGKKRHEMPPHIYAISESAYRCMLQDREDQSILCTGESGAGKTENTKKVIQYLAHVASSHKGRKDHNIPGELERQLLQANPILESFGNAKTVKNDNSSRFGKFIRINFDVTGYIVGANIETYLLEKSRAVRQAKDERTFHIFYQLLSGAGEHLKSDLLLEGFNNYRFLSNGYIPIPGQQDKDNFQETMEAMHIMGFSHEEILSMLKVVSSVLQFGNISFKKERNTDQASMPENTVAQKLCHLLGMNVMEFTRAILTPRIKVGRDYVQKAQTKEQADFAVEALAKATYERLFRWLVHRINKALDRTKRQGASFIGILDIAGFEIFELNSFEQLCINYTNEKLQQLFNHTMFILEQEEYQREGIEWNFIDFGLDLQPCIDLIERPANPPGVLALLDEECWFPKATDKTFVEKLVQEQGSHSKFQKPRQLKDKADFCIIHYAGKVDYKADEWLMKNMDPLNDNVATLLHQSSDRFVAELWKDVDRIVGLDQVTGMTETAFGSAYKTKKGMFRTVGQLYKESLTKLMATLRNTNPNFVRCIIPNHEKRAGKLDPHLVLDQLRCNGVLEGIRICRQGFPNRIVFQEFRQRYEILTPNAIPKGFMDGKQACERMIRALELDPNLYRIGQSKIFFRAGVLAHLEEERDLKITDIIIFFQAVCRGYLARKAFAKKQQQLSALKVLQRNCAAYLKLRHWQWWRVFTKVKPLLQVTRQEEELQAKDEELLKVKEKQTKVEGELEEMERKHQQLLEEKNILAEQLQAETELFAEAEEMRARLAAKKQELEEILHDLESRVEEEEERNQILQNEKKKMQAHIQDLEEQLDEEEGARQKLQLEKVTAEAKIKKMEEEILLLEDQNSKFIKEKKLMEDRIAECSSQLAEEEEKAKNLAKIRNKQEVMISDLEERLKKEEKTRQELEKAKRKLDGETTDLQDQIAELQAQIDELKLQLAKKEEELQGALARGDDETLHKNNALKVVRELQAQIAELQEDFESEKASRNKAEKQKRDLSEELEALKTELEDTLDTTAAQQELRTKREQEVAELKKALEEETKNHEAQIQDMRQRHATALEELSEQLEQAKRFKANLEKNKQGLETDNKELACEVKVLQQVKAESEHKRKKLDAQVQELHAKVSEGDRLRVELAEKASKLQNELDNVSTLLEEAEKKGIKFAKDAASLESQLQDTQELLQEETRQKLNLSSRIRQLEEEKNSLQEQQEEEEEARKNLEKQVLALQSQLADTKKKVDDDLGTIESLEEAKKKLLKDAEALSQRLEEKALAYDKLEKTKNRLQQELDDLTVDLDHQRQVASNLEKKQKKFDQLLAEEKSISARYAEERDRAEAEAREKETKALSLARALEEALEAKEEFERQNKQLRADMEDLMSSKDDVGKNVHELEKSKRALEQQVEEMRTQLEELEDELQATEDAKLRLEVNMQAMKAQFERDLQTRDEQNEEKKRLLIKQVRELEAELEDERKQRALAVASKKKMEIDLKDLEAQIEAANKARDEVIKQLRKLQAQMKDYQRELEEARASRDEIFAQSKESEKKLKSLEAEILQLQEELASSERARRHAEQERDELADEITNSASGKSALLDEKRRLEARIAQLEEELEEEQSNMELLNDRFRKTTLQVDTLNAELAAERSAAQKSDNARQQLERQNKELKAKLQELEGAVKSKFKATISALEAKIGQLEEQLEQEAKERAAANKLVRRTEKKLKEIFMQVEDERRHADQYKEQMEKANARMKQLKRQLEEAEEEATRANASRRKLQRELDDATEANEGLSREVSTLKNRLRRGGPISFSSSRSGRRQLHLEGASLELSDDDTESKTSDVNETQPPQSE", "test": "Mammalian cell sedimentation assay", "assay_type": "cell-based", "protocol": "as §3, §4"}, "myosin IIA": {"biological_target": "T6, myosin IIA (Homo sapiens, UniProt P35579)", "T6 construct": "endogenous in cells; host or cells: HEK293, HPDE, ASPC-1", "test": "Mammalian cell sedimentation assay", "assay_type": "cell-based", "conditions": "human-derived cell lines", "protocol": "as §3, §4"}}}
{"smiles": "CC(=O)c1ccc(O)cc1", "note": "[4-HAP, 4-hydroxyacetophenone]", "values": [{"measurement": "myosin accumulation, GFP-S1 motor domain", "setting": "myosin II [1]", "value": "did not show an accumulation response"}, {"measurement": "filament formation, GFP-3XAsp myosin", "setting": "myosin II [2]", "value": "generating more short filaments"}, {"measurement": "filament formation, GFP-3XAla myosin", "setting": "myosin II [3]", "value": "increasing in filament length and intensity"}, {"measurement": "myosin accumulation, GFP-S456L myosin", "setting": "myosin II [4]", "value": "did not show a response to 4-HAP"}, {"measurement": "in vitro invasion", "setting": "ASPC-1 cells [5]", "value": "dose-dependent decrease"}, {"measurement": "detectability of actin flow", "setting": "ASPC-1 cells [6]", "value": "undetectable levels of actin flow"}, {"measurement": "reduction in retrograde actin flow velocity over untreated controls", "setting": "ASPC-1 cells [6]; cells in which flow could be measured", "value": 50, "unit": "%"}, {"measurement": "transwell migration", "setting": "[7]", "value": "moderate dose-dependence reduction of transwell migration"}, {"measurement": "viability vs DMSO control", "setting": "ASPC-1 cells [8]", "value": "no difference over DMSO control"}, {"measurement": "assembled myosin IIC", "setting": "myosin IIC; ASPC-1 cells, 500 nM, 1 hr", "value": "increases assembled myosin IIC"}, {"measurement": "assembled myosin IIC", "setting": "myosin IIC; HEK293 cells, 500 nM, 1 hr", "value": "increases in assembled myosin IIB and IIC"}, {"measurement": "assembled myosin IIC", "setting": "myosin IIC; wild type HPDE cells", "value": "increases assembled myosin IIC"}, {"measurement": "assembled myosin IIB", "setting": "myosin IIB; HEK293 cells, 500 nM, 1 hr", "value": "increases in assembled myosin IIB and IIC"}, {"measurement": "assembled myosin IIB", "setting": "myosin IIB; HPDE cells", "value": "showed a shift in assembly"}, {"measurement": "assembled myosin IIA", "setting": "myosin IIA", "value": "showed little change"}]}
